Patent publication US9624239B2, “Protein kinase inhibitors” (Pharmascience Inc., priority 2011, dated 2017)

Columns and labels:
mouse splenocytes = experiment: Splenic cell proliferation assay (anti-IgM stimulated B cell proliferation, Cell Titer-Glo); format: cell-based; conditions: Splenocyte; CD1 mouse splenocytes, 1 h pre-treatment, 2.5 ug/ml anti-IgM F(ab')2 for 72 h; read-out: EC50 (nM), Inhibition of splenic cell proliferation
Description: Splenic Cell Proliferation Assay
Splenocytes were obtained from 6 week old male CD1 mice (Charles River Laboratories Inc.). Mouse spleens were manually disrupted in PBS and filtered using a 70 μm cell strainer followed by ammonium chloride red blood cell lysis. Cells were washed, resuspended in Splenocyte Medium (HyClone RPMI supplemented with 10% heat-inactivated FBS, 0.5× non-essential amino acids, 10 mM HEPES, 50 uM beta mercaptoethanol) and incubated at 37° C., 5% CO2 for 2 h to remove adherent cells. Suspension cells were seeded in 96 well plates at 50,000 cells per well and incubated at 37° C., 5% CO2 for 1 h. Splenocytes were pre-treated in triplicate with 10,000 nM curves of Formula 1 compounds for 1 h, followed by stimulation of B cell proliferation with 2.5 ug/ml anti-IgM F(ab′)2 (Jackson ImmunoResearch) for 72 h. Cell proliferation was measured by Cell Titer-Glo Luminescent Assay (Promega). EC50 values (50% proliferation in the presence of compound as compared to vehicle treated controls) were calculated from dose response compound curves using GraphPad Prism Software.
EC50 values are reported in Table 4: • a—Less than 100 nM; b—less than 1000 nM; c—more than 1000 nM

[1] = molecular target: T1, histidine tagged recombinant human full-length Bruton Agammaglobulinemia Tyrosine Kinase (Btk) (Homo sapiens, UniProt Q06187); experiment: Btk kinase inhibition assay (fluorescence polarization, KinEASE FP Fluorescein Green); format: biochemical; conditions: 10 μM ATP, 250 μM substrate, 60 minutes, room temperature; Ki from IC50 by Cheng-Prusoff; read-out: ki50 (nM), Inhibition of Btk
T1 construct: recombinant human full-length Bruton Agammaglobulinemia Tyrosine Kinase (Btk); histidine tag
Description: (§1) Kinase Binding Btk and Lck Kinase Inhibition Assay
(§2) Fluorescence polarization-based kinase assays were performed in 384 well-plate format using histidine tagged recombinant human full-length Bruton Agammaglobulinemia Tyrosine Kinase (Btk) or histidine tagged recombinant Human Lymphocyte-Specific Protein Tyrosine Kinase (Lck) and a modified protocol of the KinEASE™ FP Fluorescein Green Assay supplied from Millipore. Kinase reaction were performed at room temperature for 60 minutes in presence of 250 μM substrate, 10 μM ATP and variable test article concentrations. The reaction was stopped with EDTA/kinease detection reagents and the polarization measured on a Tecan 500 instrument. From the dose-response curve obtained, the IC50 was calculated using Graph Pad Prisms® using a non-linear fit curve. The Km for ATP on each enzyme was experimentally determined and the Ki values calculated using the Cheng-Prusoff equation (see: Cheng Y, Prusoff W H. (1973) Relationship between the inhibition constant (K1) and the concentration of inhibitor which causes 50 percent inhibition (I50) of an enzymatic reaction”. Biochem Pharmacol 22 (23): 3099-108).
(§3) ki values are reported in Tables 2 and 3: • a—Less than 100 nM; b—less than 1000 nM; c—more than 1000 nM

[2] = molecular target: T2, histidine tagged recombinant Human Lymphocyte-Specific Protein Tyrosine Kinase (Lck) (Homo sapiens, UniProt P06239); experiment: Lck kinase inhibition assay (fluorescence polarization, KinEASE FP Fluorescein Green); format: biochemical; conditions: 10 μM ATP, 250 μM substrate, 60 minutes, room temperature; Ki from IC50 by Cheng-Prusoff
T2 construct: histidine tag
Description: as §1, §2, §3

T2 sequence (P06239 whole entry): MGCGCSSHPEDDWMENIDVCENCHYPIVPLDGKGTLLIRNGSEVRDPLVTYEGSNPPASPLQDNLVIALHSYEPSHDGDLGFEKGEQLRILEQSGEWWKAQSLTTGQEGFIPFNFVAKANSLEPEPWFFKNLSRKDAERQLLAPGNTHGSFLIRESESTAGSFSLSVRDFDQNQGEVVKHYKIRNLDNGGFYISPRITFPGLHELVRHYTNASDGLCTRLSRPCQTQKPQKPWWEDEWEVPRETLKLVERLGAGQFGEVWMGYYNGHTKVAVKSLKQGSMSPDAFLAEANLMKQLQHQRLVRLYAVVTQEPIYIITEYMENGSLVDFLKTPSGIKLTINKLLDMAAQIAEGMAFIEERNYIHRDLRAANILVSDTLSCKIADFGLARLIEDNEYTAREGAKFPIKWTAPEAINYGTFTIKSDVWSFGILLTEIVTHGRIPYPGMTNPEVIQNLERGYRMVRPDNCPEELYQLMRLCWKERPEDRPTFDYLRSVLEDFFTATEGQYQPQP
T1 sequence (Q06187 whole entry): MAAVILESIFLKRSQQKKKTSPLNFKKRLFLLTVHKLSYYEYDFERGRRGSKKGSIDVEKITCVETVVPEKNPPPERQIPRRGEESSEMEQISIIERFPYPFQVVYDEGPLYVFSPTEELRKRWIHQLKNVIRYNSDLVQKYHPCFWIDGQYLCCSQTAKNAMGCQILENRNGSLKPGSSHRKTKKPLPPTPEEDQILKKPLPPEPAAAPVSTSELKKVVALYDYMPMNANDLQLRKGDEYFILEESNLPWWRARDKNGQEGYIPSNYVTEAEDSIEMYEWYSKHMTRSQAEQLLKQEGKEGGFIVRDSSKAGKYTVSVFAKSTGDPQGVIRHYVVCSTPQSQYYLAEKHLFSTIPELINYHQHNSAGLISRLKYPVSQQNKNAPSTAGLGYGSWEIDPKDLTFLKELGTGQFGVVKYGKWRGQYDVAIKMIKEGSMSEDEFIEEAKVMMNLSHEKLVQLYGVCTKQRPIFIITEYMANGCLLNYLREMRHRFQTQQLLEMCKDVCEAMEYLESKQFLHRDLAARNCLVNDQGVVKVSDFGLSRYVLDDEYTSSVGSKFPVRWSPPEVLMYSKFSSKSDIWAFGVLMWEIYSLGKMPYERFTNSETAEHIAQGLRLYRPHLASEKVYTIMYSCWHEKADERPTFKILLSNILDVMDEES

| SMILES | EC50 (mouse splenocytes) [nM] | Ki [1] [nM] | Ki [2] [nM] |
| --- | --- | --- | --- |
| Nc1ncnc2c3c(n(-c4ccc(Oc5ccccc5)cc4)c12)CCC3 [Compound 1] | > 1000 | < 1000 | < 100 |
| Nc1ncnc2c3c(n(-c4ccc(Oc5ccc(F)cc5)cc4)c12)CCC3 [Compound 2] | > 1000 | > 1000 | > 1000 |
| Nc1ncnc2c3c(n(-c4ccc(Oc5ccccc5)cc4)c12)CCNC3 [Compound 8] |  | > 1000 | < 1000 |
| Nc1ncnc2c3c(n(-c4ccc(Oc5ccccc5)cc4)c12)CN(S(=O)(=O)c1ccccc1)C3 [Compound 9] |  | > 1000 | < 1000 |
| CCN1CCc2c(c3ncnc(N)c3n2-c2ccc(Oc3ccccc3)cc2)C1 [Compound 15] |  | > 1000 | < 100 |
| Nc1ncnc2c3c(n(-c4ccc(Oc5ccccc5)cc4)c12)CN(C(=O)c1ccccc1)C3 [Compound 18] |  | > 1000 | < 1000 |
| Nc1ncnc2c3c(n(-c4ccc(Cc5ccccc5)cc4)c12)CCC3 [Compound 22] |  | > 1000 | < 100 |
| CC1OCc2c1c1ncnc(N)c1n2-c1ccc(Oc2cccc(OCc3cccc(C(F)(F)F)c3)c2)cc1 (stereo not shown) [Compound 105] | 100 to 1000 | < 100 |  |
| CC(=O)Nc1cccc(COc2cccc(Oc3ccc(-n4c5c(c6ncnc(N)c64)C(C)OC5)cc3)c2)c1 (stereo not shown) [Compound 106] | 100 to 1000 | < 100 |  |
| CC1OCc2c1c1ncnc(N)c1n2-c1ccc(Oc2cccc(OCc3ccccc3Cl)c2)cc1 (stereo not shown) [Compound 107] | < 100 | < 100 |  |
| COc1ccccc1COc1cccc(Oc2ccc(-n3c4c(c5ncnc(N)c53)C(C)OC4)cc2)c1 (stereo not shown) [Compound 108] | 100 to 1000 | < 100 |  |
| COc1ccc(C(=O)Nc2cccc(Oc3ccc(-n4c5c(c6ncnc(N)c64)C(C)OC5)cc3)c2)cc1 (stereo not shown) [Compound 110] | > 1000 | < 1000 |  |
| CC(C)C(=O)Nc1cccc(Oc2ccc(-n3c4c(c5ncnc(N)c53)C(C)OC4)cc2)c1 (stereo not shown) [Compound 111] | > 1000 | < 1000 |  |
| CC1OCc2c1c1ncnc(N)c1n2-c1ccc(Oc2cccc(NC(=O)c3ccc(F)cc3)c2)cc1 (stereo not shown) [Compound 112] | 100 to 1000 | < 100 |  |
| CC1OCc2c1c1ncnc(N)c1n2-c1ccc(Oc2cccc(OCc3cccc([N+](=O)[O-])c3)c2)cc1 (stereo not shown) [Compound 113] | 100 to 1000 | < 100 |  |
| CC(C)CC(=O)Nc1cccc(Oc2ccc(-n3c4c(c5ncnc(N)c53)C(C)OC4)cc2)c1 (stereo not shown) [Compound 114] | 100 to 1000 | < 100 |  |
| CC1OCc2c1c1ncnc(N)c1n2-c1ccc(Oc2cccc(CCOc3ccccc3)c2)cc1 (stereo not shown) [Compound 115] | 100 to 1000 | < 100 |  |
| CC1OCc2c1c1ncnc(N)c1n2-c1ccc(Oc2cccc(OCc3cccc(N)c3)c2)cc1 (stereo not shown) [Compound 116] | 100 to 1000 | < 100 |  |
| Cc1nc(-c2cccc(Oc3ccc(-n4c5c(c6ncnc(N)c64)CCC5)cc3)c2)cs1 [Compound 117] | 100 to 1000 | < 100 |  |
| COc1cccc(C(=O)Nc2cccc(Oc3ccc(-n4c5c(c6ncnc(N)c64)C(C)OC5)cc3)c2)c1 (stereo not shown) [Compound 118] | 100 to 1000 | < 100 |  |
| CC1OCc2c1c1ncnc(N)c1n2-c1ccc(Oc2cccc(NC(=O)c3cccc(Cl)c3)c2)cc1 (stereo not shown) [Compound 119] | 100 to 1000 | < 100 |  |
| CC1OCc2c1c1ncnc(N)c1n2-c1ccc(Oc2cccc(NC(=O)c3ccc(Cl)cc3)c2)cc1 (stereo not shown) [Compound 120] | 100 to 1000 | < 100 |  |
| CC1OCc2c1c1ncnc(N)c1n2-c1ccc(Oc2cccc(NC(=O)c3cccc(F)c3)c2)cc1 (stereo not shown) [Compound 121] | 100 to 1000 | < 100 |  |

| SMILES | EC50 (mouse splenocytes) [nM] | Ki [1] [nM] | Ki [2] [nM] |
| --- | --- | --- | --- |
| N#Cc1ccccc1COc1cccc(Oc2ccc(-n3c4c(c5ncnc(N)c53)CCC4)cc2)c1 [Compound 122] | 100 to 1000 | < 100 |  |
| COc1cccc(COc2cccc(Oc3ccc(-n4c5c(c6ncnc(N)c64)CCC5)cc3)c2)c1 [Compound 123] | 100 to 1000 | < 100 |  |
| CC1OCc2c1c1ncnc(N)c1n2-c1ccc(Oc2cccc(OCCC3CCCCC3)c2)cc1 (stereo not shown) [Compound 124] | 100 to 1000 | < 100 |  |
| CC1OCc2c1c1ncnc(N)c1n2-c1ccc(Oc2cccc(NC(=O)c3ccccc3F)c2)cc1 (stereo not shown) [Compound 125] | 100 to 1000 | < 100 |  |
| CCCC(=O)Nc1cccc(Oc2ccc(-n3c4c(c5ncnc(N)c53)C(C)OC4)cc2)c1 (stereo not shown) [Compound 126] | 100 to 1000 | < 1000 |  |
| COc1ccccc1C(=O)Nc1cccc(Oc2ccc(-n3c4c(c5ncnc(N)c53)C(C)OC4)cc2)c1 (stereo not shown) [Compound 127] | 100 to 1000 | < 100 |  |
| Nc1ncnc2c3c(n(-c4ccc(Oc5cccc(OCc6ccc(Cl)cc6)c5)cc4)c12)CCC3 [Compound 128] | 100 to 1000 | < 100 |  |
| COc1ccc(COc2cccc(Oc3ccc(-n4c5c(c6ncnc(N)c64)CCC5)cc3)c2)cc1 [Compound 129] | 100 to 1000 | < 100 |  |
| CC(=O)Nc1cccc(COc2cccc(Oc3ccc(-n4c5c(c6ncnc(N)c64)CCC5)cc3)c2)c1 [Compound 130] | 100 to 1000 | < 100 |  |
| COc1ccc(OCc2cccc(Oc3ccc(-n4c5c(c6ncnc(N)c64)C(C)OC5)cc3)c2)cc1 (stereo not shown) [Compound 131] | 100 to 1000 | < 100 |  |
| COCC(=O)Nc1cccc(COc2cccc(Oc3ccc(-n4c5c(c6ncnc(N)c64)C(C)OC5)cc3)c2)c1 (stereo not shown) [Compound 132] | 100 to 1000 | < 100 |  |
| CC1OCc2c1c1ncnc(N)c1n2-c1ccc(Oc2cccc(OCc3cccc(NC(=O)C4CC4)c3)c2)cc1 (stereo not shown) [Compound 133] | < 100 | < 100 |  |
| CC1OCc2c1c1ncnc(N)c1n2-c1ccc(Oc2cccc(COc3ccccc3C#N)c2)cc1 (stereo not shown) [Compound 134] | < 100 | < 100 |  |
| CC(C)COc1cccc(Oc2ccc(-n3c4c(c5ncnc(N)c53)C(C)OC4)cc2)c1 (stereo not shown) [Compound 135] | 100 to 1000 | < 100 |  |
| CCCCOc1cccc(Oc2ccc(-n3c4c(c5ncnc(N)c53)C(C)OC4)cc2)c1 (stereo not shown) [Compound 136] | 100 to 1000 | < 100 |  |
| COc1cccc(OCc2cccc(Oc3ccc(-n4c5c(c6ncnc(N)c64)C(C)OC5)cc3)c2)c1 (stereo not shown) [Compound 137] | 100 to 1000 | < 100 |  |
| CC1OCc2c1c1ncnc(N)c1n2-c1ccc(Oc2cccc(OCC3CC3)c2)cc1 (stereo not shown) [Compound 138] | 100 to 1000 | < 100 |  |
| CC1OCc2c1c1ncnc(N)c1n2-c1ccc(Oc2cccc(OCc3cccc(OCCN(C)C)c3)c2)cc1 (stereo not shown) [Compound 139] | 100 to 1000 | < 100 |  |
| CC1OCc2c1c1ncnc(N)c1n2-c1ccc(Oc2cccc(OCC3CCCC3)c2)cc1 (stereo not shown) [Compound 140] | 100 to 1000 | < 1000 |  |
| CC(=O)Nc1ccccc1OCc1cccc(Oc2ccc(-n3c4c(c5ncnc(N)c53)C(C)OC4)cc2)c1 (stereo not shown) [Compound 141] | 100 to 1000 | < 1000 |  |
| N#Cc1ccccc1OCc1cccc(Oc2ccc(-n3c4c(c5ncnc(N)c53)COC4)cc2)c1 [Compound 142] | 100 to 1000 | < 100 |  |
| N#Cc1ccccc1COc1cccc(Oc2ccc(-n3c4c(c5ncnc(N)c53)COC4)cc2)c1 [Compound 143] | 100 to 1000 | < 100 |  |
| N#Cc1ccccc1OCc1cccc(Oc2ccc(-n3c4c(c5ncnc(N)c53)CCC4)cc2)c1 [Compound 144] | 100 to 1000 | < 100 |  |
